Results from patent US20230090293A1, “ANTIBIOTICS” (ASTON UNIVERSITY, priority 2020, published 2023).

What was measured:
[1] = system: HCT116 (colorectal cancer cell line); assay: In vitro chemosensitivity (MTT) assay, HCT116; format: cell-based, human; conditions: 24 h exposure, 72 h recovery, mean ± SD
Experimental: (§1) In vitro chemosensitivity tests were performed against HCT116 (colorectal cancer cell line), A2780 and A2780cisR (cisplatin sensitive and cisplatin resistant ovarian cancer cell lines, respectively). Cancer cell lines were routinely maintained as monolayer cultures in RPMI medium supplemented with 10% foetal calf serum, penicillin (100 I.U./ml) and streptomycin (100 μg/ml), sodium pyruvate (1 mM) and L-glutamine (2 mM). For chemosensitivity studies, cells were incubated in 96-well plates at a concentration of 7.5×10^3 cells per well and the plates were incubated for 24 hours at 37° C. and a 5% CO2 humidified atmosphere prior to drug exposure.
(§2) Complexes were dissolved in dimethylsulfoxide (DMSO) to provide stock solutions which were further diluted with media to provide a range of final concentrations. Drug-media solutions were added to cells (the final concentration of DMSO was less than 0.5% (v/v) in all cases) and incubated for 24 hours at 37° C. and 5% CO2 humidified atmosphere. […] A Thermo Scientific Multiskan EX microplate photometer was used to measure the absorbance in each well at 570 nm. Cell survival was determined as the absorbance of treated cells divided by the absorbance of controls and expressed as a percentage. The IC50 values were determined from plots of % survival against drug concentration. […]

[2] = system: A2780cisR (cisplatin resistant ovarian cancer cell line); assay: In vitro chemosensitivity (MTT) assay, A2780cisR; format: cell-based, human; conditions: 24 h exposure, 72 h recovery, mean ± SD
Experimental: as §1, §2

In the case of `N.N.[Cl][Pt][Cl]` [cisplatin], the IC50 [1] is reported as 59.8 ± 7.5 µM and the IC50 [2] is reported as 11.9 ± 2.2 µM.
